From paper PMC6905855, “Agonist-specific voltage-dependent gating of lysosomal two-pore Na^+ channels” (eLife, 2019)
Several values for one entry are separate records, joined by “and”; a condition that tells them apart may be missing. Equal values may be shown once. Entries after “also recorded” stand apart in the source; their conditions may differ.

Tests used:
hTPC2 = biological target: T1, hTPC2 (Homo sapiens, UniProt Q8NHX9); assay: Whole-endolysosome recordings of ITPC2; type: biochemical; details: for Dose-dependent activation of TPC2 (normalized current): individual patches; for inactivation of ITPC2, I500ms / I10ms: @-120mV
T1 construct: expressed in transfected cells; host or cells: Cos1 and HEK293
T1 sequence (Q8NHX9 whole entry): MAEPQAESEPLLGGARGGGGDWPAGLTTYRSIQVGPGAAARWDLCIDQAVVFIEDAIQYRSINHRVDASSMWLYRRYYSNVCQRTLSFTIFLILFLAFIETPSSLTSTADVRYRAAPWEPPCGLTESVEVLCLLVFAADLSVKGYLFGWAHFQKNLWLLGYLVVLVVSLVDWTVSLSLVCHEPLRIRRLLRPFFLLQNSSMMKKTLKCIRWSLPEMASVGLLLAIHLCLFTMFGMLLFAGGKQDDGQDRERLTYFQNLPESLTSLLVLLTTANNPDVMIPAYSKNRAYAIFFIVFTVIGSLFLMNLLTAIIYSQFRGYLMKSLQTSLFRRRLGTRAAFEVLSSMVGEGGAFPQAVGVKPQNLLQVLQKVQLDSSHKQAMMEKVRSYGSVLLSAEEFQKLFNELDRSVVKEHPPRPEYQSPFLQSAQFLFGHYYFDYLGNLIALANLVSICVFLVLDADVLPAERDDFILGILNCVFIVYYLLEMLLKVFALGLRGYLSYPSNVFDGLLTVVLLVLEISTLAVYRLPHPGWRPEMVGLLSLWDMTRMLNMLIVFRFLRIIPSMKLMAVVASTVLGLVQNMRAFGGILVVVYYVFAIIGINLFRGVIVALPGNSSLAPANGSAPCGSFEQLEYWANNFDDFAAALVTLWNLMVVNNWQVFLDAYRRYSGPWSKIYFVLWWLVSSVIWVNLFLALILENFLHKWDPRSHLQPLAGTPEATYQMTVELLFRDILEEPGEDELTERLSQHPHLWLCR

[1] = tested on: endogenous TPCs in WT HAP1 cells; assay: Whole-endolysosome recordings of endogenous ITPC in WT HAP1 cells; type: biochemical, human
[2] = biological target: T2, surface-expressing mutant TPC2 channel (TPC2^LL/AA) in HEK293 cells (Homo sapiens, UniProt Q8NHX9, L11A/L12A); assay: Whole-cell recordings of ITPC2-LL/AA; type: cell-based; details: for voltage-dependent inactivation of ITPC2, I1s / 0s: @-140mV, whole-cell
T2 construct: expressed in transfected cells; host or cells: HEK293
T2 sequence (Q8NHX9 whole entry L11A/L12A): as the sequence (Q8NHX9 whole entry) above, with L11A, L12A counted along it
Procedure, shortened: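 HEK293 cells transiently expressing EGFP-tagged human TPC2 L11A/L12A, a plasma-membrane-targeted mutant, recorded 24–36 h post-transfection. Whole-cell patch clamp with fast perfusion of bath solutions; currents digitized at 10 kHz and filtered at 2 kHz.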

hTPC1 = biological target: T3, hTPC1 (Homo sapiens, UniProt Q9ULQ1); assay: Whole-endolysosome recordings of ITPC1; type: biochemical
T3 construct: expressed in transfected cells; host or cells: Cos1

[3] = PI(3,5)P2 0.3 µM, LyNa-VA1.2 100 µM, LyNA1 300 µM, individual tests
[4] = LyNA1 (300 µM)-induced whole-cell ITPC2-LL/AA, individual

Nc1nc2ccc(OC(F)(F)F)cc2s1 [LyNA1, Riluzole]
cation selectivity of induced whole-endolysosome ITPC2 (in words) (hTPC2): highly selective for Na^+ over K^+ | voltage dependence of TPC2 activation (in words) (hTPC2): voltage independent; also recorded: no apparent voltage-dependent activation | Dose-dependent activation of TPC2 (normalized current) (hTPC2; 10 µM +10nM PI(3,5)P2): 0.03469 and -0.1321 and -0.1628 | Dose-dependent activation of TPC2 (normalized current) (hTPC2; 50 µM +10nM PI(3,5)P2): 0.02967 and -0.04581 and -0.07904 | Dose-dependent activation of TPC2 (normalized current) (hTPC2; 50 µM, absence of PI(3,5)P2): 0.02084 and 0.03963 and 0.0267 | Dose-dependent activation of TPC2 (normalized current) (hTPC2; 100 µM +10nM PI(3,5)P2): 0.3825 and 0.3197 and 0.06652 | Dose-dependent activation of TPC2 (normalized current) (hTPC2; 100 µM, absence of PI(3,5)P2): 0.1347 and 0.1166 and 0.2034 and 0.258 and 0.1062 | Dose-dependent activation of TPC2 (normalized current) (hTPC2; 150 µM +10nM PI(3,5)P2): 0.5952 and 0.5358 and 0.2713 | Dose-dependent activation of TPC2 (normalized current) (hTPC2; 150 µM, absence of PI(3,5)P2): 0.4553 and 0.5013 and 0.5031 and 0.7594 and 0.3882 | Dose-dependent activation of TPC2 (normalized current) (hTPC2; 300 µM +10nM PI(3,5)P2): 0.9432 and 0.8992 and 0.9659 | Dose-dependent activation of TPC2 (normalized current) (hTPC2; 300 µM, absence of PI(3,5)P2): 0.9388 and 0.9543 | Dose-dependent activation of TPC2 (normalized current) (hTPC2; 400 µM +10nM PI(3,5)P2): 1 (2×) and 1.003 | Dose-dependent activation of TPC2 (normalized current) (hTPC2; 400 µM, absence of PI(3,5)P2): 0.9725 and 0.9884 and 0.9899 and 0.9935 and 0.9997 and 0.9921 | EC50 (hTPC2; + PI(3,5)P2 (10 nM)): 175 ± 19 µM | EC50 (hTPC2; - PI(3,5)P2): 181 ± 6 µM | inactivation of ITPC2, I500ms / I10ms (hTPC2; [3]): 0.9047 and 1.003 and 0.9967 and 0.9738 | inactivation of ITPC2, I500ms / I10ms (hTPC2; mean): 0.9697 | combined effect with PI(3,5)P2 on whole-endolysosome ITPC2 (in words) (hTPC2; PI(3,5)P2 50 nM): additive but not synergistic activation; also recorded: Additive effects | Rectification index of ITPC2, I+80mV/I-80mV (hTPC2; [3]): 0.903 and 1.02 and 0.912 and 0.8953 | Rectification index of ITPC2, I+80mV/I-80mV (hTPC2; PI(3,5)P2 0.3 µM, LyNa-VA1.2 100 µM, LyNA1 300 µM, mean): 0.93 ± 0.03 and 0.9325 | activation of whole-endolysosome ITPC2 (in words) (hTPC2; bath application, symmetric Na^+): readily activated ITPC2 | I@500ms/I@10ms (current decline at steady state) (hTPC2; voltage-step protocols, at all potentials): ~1.0 | activation of whole-endolysosome ITPC in WT HAP1 cells (in words) [1]: activated whole-endolysosome ITPC in WT HAP1 cells | voltage-dependent inactivation of ITPC2, I1s / 0s ([2]; individual recordings): 0.9086 and 1.046 and 0.9409 | voltage-dependent inactivation of ITPC2, I1s / 0s ([2]; mean): 0.9653 | Px/PNa+, Ca2+ [2, 4]: 0.09045 and 0.1026 and 0.1022 and 0.09007 | Px/PNa+, K+ [2, 4]: 0.05625 and 0.0959 and 0.1041 | Px/PNa+, Na+ [2, 4]: 0.8393 and 1.008 and 0.9746 | activation of whole-cell ITPC2-LL/AA (in words) ([2]; bath application, symmetric Na^+, 100 µM where stated): activated large and linear whole-cell currents | effect on whole-endolysosome ITPC1 (in words) (hTPC1): inhibited ITPC1
